In brackets after ≈: the same amount, converted by molar mass. Entries after “also recorded” stand apart in the source; their conditions may differ. Read-outs that look alike come from different tables or passages of the source.
What was measured:
HPNE = test: MTT cytotoxicity assay, HPNE; format: cell-based; settings: read-out: IC50 HPNE
[1] = cited from earlier work
DPAGT1 [2] = settings: cited from earlier work
[3] = tested on: normal cells / cancer cells; settings: selected solid cancer cell lines; ref [10]; cited from earlier work
DPAGT1 (Human) = DPAGT1 (Human) (Homo sapiens, UniProt Q9H3H5); test: DPAGT1 assay; format: biochemical
Chain of DPAGT1 (Human) (Q9H3H5 whole entry): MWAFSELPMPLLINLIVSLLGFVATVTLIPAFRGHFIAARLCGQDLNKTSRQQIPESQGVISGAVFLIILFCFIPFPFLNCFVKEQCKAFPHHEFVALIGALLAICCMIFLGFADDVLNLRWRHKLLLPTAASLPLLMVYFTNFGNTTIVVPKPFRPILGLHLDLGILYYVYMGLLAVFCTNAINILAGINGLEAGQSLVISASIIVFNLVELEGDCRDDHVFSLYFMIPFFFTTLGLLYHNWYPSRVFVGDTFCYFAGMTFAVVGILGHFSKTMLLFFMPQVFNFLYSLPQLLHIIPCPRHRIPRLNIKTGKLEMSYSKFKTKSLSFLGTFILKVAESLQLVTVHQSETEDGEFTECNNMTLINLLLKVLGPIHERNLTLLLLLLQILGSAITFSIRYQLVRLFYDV

[4] = tested on: Myocobacterium tuberculosis H37Rv, Mycobacterium avium 2285, Mycobacterium smegmatis (ATCC607); test: Antimycobacterial activity; format: cell-based, Mycobacterium spp.
PD002 [5] = test: Kinetic proliferation assay; format: cell-based, human
PD002 [6] = test: Scratch; format: cell-based, human; settings: PD002, 24h, 0.2 μM; untreated 63%
HCT-116 [7] = test: Scratch; format: cell-based; settings: scratch assay
SiHa [8] = test: Scratch; format: cell-based, human; settings: scratch assay, 0.2 μM
PD002 [9] = test: Cell migration assay using transwell; format: cell-based, human; settings: 0.1 μM, 18h; vs tunicamycin and gemcitabine at 0.1 μM
Snail = Snail expression; format: cell-based; settings: 0.05 and 2.0 μM
E-Cadherin = E-Cadherin expression; format: cell-based
DPAGT1 [10] = test: DPAGT1 protein expression; format: cell-based
PD002 [11] = test: Checkerboard synergy of CPPB with paclitaxel; format: cell-based, human; settings: for CA and CB, concentration in combination: growth–no growth interface
[12] = tested on: cancer and healthy cell lines; test: Cytotoxicity across cell-line panel; format: cell-based
[13] = tested on: MraY, WecA, AglH, and DPAGT1; test: Phosphotransferase panel; format: biochemical; settings: at 50 μM concentration
PD002 [14] = test: MTT cytotoxicity assay, PD002; format: cell-based, human; settings: read-out: IC50 PD002
[15] = target: MraY (Hydrogenivirga sp.) (Hydrogenivirga sp. 128-5-R1-1, UniProt Z9Y2G8N0L0); test: MraY assay; format: biochemical; settings: read-out: IC50 MraY (Hydrogenivirga sp.)
Chain of MraY (Hydrogenivirga sp.) (Z9Y2G8N0L0 7-365 limits assumed): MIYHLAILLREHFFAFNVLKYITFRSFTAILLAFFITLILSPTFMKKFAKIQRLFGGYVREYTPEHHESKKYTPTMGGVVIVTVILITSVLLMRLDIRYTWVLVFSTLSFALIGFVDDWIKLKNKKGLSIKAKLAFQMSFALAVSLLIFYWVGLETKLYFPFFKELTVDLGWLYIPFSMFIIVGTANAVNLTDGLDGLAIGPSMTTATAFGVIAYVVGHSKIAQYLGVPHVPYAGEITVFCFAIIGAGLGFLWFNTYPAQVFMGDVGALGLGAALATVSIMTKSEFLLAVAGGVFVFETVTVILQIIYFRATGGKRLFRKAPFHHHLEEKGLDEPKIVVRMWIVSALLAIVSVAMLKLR

AglH (M. jannaschii) = AglH (M. jannaschii) (Methanocaldococcus jannaschii, UniProt Q58513); test: AglH assay; format: biochemical; settings: read-out: IC50 AglH (M. jannaschii)
Chain of AglH (M. jannaschii) (Q58513 whole entry): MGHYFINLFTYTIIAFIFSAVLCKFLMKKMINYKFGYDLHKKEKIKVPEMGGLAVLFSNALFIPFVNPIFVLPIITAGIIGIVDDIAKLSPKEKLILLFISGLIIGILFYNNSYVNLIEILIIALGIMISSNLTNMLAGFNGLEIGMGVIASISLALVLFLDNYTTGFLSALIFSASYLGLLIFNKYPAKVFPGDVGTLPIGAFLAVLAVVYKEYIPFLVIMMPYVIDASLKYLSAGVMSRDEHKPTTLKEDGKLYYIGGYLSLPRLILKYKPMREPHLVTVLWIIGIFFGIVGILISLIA

L1210 = test: MTT cytotoxicity assay, L1210; format: cell-based, mouse; settings: read-out: IC50 L1210, 72h
KB = test: MTT cytotoxicity assay, KB; format: cell-based, human; settings: read-out: IC50 KB, 72h
SiHa [16] = test: MTT cytotoxicity assay, SiHa; format: cell-based, human; settings: read-out: IC50 SiHa, 72h
HCT-116 [17] = test: MTT cytotoxicity assay, HCT-116; format: cell-based; settings: read-out: IC50 HCT-116, 72h
DLD-1 = test: MTT cytotoxicity assay, DLD-1; format: cell-based; settings: read-out: IC50 DLD-1, 72h
Capan-1 = test: MTT cytotoxicity assay, Capan-1; format: cell-based, human; settings: read-out: IC50 Capan-1, 72h
PANC-1 = test: MTT cytotoxicity assay, PANC-1; format: cell-based, human; settings: read-out: IC50 PANC-1, 72h
AsPC-1 = test: MTT cytotoxicity assay, AsPC-1; format: cell-based, human; settings: read-out: IC50 AsPC-1, 72h
Vero = test: MTT cytotoxicity assay, Vero; format: cell-based, Cercopithecus aethiops; settings: read-out: IC50 Vero, 72h, normal kidney cell
DPAGT1 gene = test: RT-qPCR of DPAGT1 gene expression in PD002; format: cell-based, human; settings: 10 μM, 24h at 37 °C
MraY/MurX = settings: cited from earlier work
WecA = settings: read-out: IC50 WecA; ref [9],[10]; cited from earlier work
WecA (E. coli) = WecA (E. coli) (Escherichia coli, UniProt P0AC78); test: WecA assay; settings: read-out: IC50 WecA (E. coli)
Chain of WecA (E. coli) (P0AC78 whole entry): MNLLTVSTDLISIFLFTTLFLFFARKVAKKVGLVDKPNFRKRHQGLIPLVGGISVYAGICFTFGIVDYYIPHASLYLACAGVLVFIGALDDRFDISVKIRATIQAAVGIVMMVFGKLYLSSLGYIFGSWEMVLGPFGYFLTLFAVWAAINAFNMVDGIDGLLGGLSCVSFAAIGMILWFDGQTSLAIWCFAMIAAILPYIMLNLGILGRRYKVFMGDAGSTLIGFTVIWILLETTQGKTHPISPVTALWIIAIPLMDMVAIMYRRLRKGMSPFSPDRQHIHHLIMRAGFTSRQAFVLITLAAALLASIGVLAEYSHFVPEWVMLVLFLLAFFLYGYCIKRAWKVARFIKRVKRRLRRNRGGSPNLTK

CO[C@H]1[C@@H](O)[C@H](n2ccc(=O)[nH]c2=O)O[C@@H]1[C@@H](O[C@H]1OC(C(=O)N[C@H]2CCCCNC2=O)=C[C@H](O)[C@@H]1O)C(N)=O [CAP, Capuramycin, reference compound]
IC50 (HPNE; HPNE, 72 h): > 50000 nM

NC[C@H]1O[C@@H](O[C@H]([C@H]2O[C@@H](n3ccc(=O)[nH]c3=O)[C@H](O)[C@@H]2O)[C@H](NCCCC(=O)NCc2ccc(N3CCC(Oc4ccc(OC(F)(F)F)cc4)CC3)cc2)C(N)=O)[C@H](O)[C@@H]1O [APPB, Aminouridyl phenoxylpiperidinylbenzylbutanamide]
LD50 ([1]; mouse, ref [10],[18]): > 20 mg/kg
DPAGT1 inhibitory activity relative to tunicamycin (DPAGT1 [2]; ref [10]): greater than 30 times
selective cytotoxicity (IC50 normal cells / cancer cells) [3]: > 35

CO[C@H]1[C@@H](O)[C@H](n2ccc(=O)[nH]c2=O)O[C@@H]1[C@@H](O[C@H]1OC(C(=O)NCc2ccc(N3CCC(Oc4ccc(OC(F)(F)F)cc4)CC3)cc2)=C[C@H](O)[C@@H]1O)C(N)=O [CPPB, (2S,3S,4S)-2-((1R)-2-Amino-1-((2S,5R)-5-(2,4-dioxo-3,4-dihydropyrimidin-1(2H)-yl)-4-hydroxy-3-methoxytetrahydrofuran-2-yl)-2-oxoethoxy)-3,4-dihydroxy-N-(4-(4-(4-(trifluoromethoxy)phenoxy)piperidin-1-yl)benzyl)-3,4-dihydro-2H-pyran-6-carboxamide]
DPAGT1 inhibitory activity relative to tunicamycin (DPAGT1 (Human)): ~ 7.5 times
IC50 (HPNE; HPNE, 72 h): > 50000 nM
MIC [4]: 6.25 to 12.5 µg/mL (≈ 7.74 to 15.5 µM)
phase area confluent of PD002 culture after 72h (PD002 [5]; CPPB 50 μM, same as time 0h, control (PBS) ca. 70%): 10–13%
cell proliferation inhibited at time 72h (PD002 [5]; PD002, CPPB 0.2–20 μM): ca. 20%
cell permeability (PD002 [5]; demonstrated by IncuCyte live cell analyses and immunofluorescence assays): cell-permeable
wound-healing rate (PD002 [6]): approximately 20%
inhibition of cell migration of HCT-116 (HCT-116 [7]): not inhibited; also recorded: did not inhibit migration
inhibition of migration of SiHa (SiHa [8]): strongly inhibited migration
inhibition of cell migration of PD002 (Boyden chamber) (PD002 [9]): inhibited on a higher level
Snail expression level in HCT-116 (Snail): not noticeably changed
E-Cadherin expression level of PANC-1 (E-Cadherin; Western blot, 0–2.0 μM): the same expression level
E-Cadherin expression levels of PD002, PANC-1, and HCT-116 (E-Cadherin; immunofluorescence, 0.05–2.0 μM): not changed significantly
DPAGT1 expression in pancreatic cancer cell lines (DPAGT1 [10]; 0.2 μM): apparently inhibited
DPAGT1 expression levels of HCT-116 remaining (DPAGT1 [10]; Western blot, CPPB 0.1–20 μM): 20–90%
CA and CB, concentration in combination (PD002 [11]; Table 3 entry 1): 0.10 µM
CA and CB, concentration in combination (PD002 [11]; Table 3 entry 2): 0.10 µM
CA and CB, concentration in combination (PD002 [11]; Table 3 entry 3): 0.20 µM
CA and CB, concentration in combination (PD002 [11]; Table 3 entry 4): 0.20 µM
CA and CB, concentration in combination (PD002 [11]; Table 3 entry 5): 0.20 µM
CA and CB, concentration in combination (PD002 [11]; Table 3 entry 6): 2.0 µM
CA and CB, concentration in combination (PD002 [11]; Table 3 entry 7): 2.0 µM
CA and CB, concentration in combination (PD002 [11]; Table 3 entry 8): 2.0 µM
synergistic effect with paclitaxel against PD002 (PD002 [11]; checkerboard): strong synergistic effects
viability of all pancreatic cancers tested ([12]; MTT assays, 20 μM): remained viable
cytotoxicity against a series of cancer and healthy cell lines ([12]; at 10 μM or higher concentrations): not cytotoxic
antiproliferative activity against L1210, HPNE, and Vero ([12]; at 50 μM): did not show antiproliferative activity
IC50 ([12]; read-out: IC50 growth inhibition of solid cancer cell lines (span)): 15000 to 45000 nM

CO[C@@H]1[C@H](O)[C@@H]([C@@H](O[C@H]2OC(CNCc3ccc(N4CCC(Oc5ccc(OC(F)(F)F)cc5)CC4)cc3)=C[C@H](O)[C@@H]2O)C(N)=O)O[C@H]1n1ccc(=O)[nH]c1=O [I-CPPA, (2R)-2-(((2S,3S,4S)-3,4-Dihydroxy-6-(((4-(4-(4-(trifluoromethoxy)phenoxy)piperidin-1-yl)benzyl)amino)methyl)-3,4-dihydro-2H-pyran-2-yl)oxy)-2-((2S,5R)-5-(2,4-dioxo-3,4-dihydropyrimidin-1(2H)-yl)-3-hydroxy-4-methoxytetrahydrofuran-2-yl)acetamide]
inhibition of all phosphotransferases tested in Table 1 [13]: did not inhibit

CO[C@@H]1[C@H](O)[C@@H]([C@@H](O[C@H]2OC(C(=O)NCc3ccc(N4CCC(Oc5ccc(OC(F)(F)F)cc5)CC4)cc3)=C[C@H](O)[C@@H]2O)C(N)=O)O[C@H]1n1ccc(=O)[nH]c1=O
growth inhibitory activity against Mycobacterium spp. ([4]; at 50 μg/mL): did not show growth inhibitory activity
antiproliferative activity against L1210, HPNE, and Vero ([12]; at 50 μM): did not show antiproliferative activity

CC(=O)O[C@H]1C(=O)[C@@]2(C)[C@H]([C@H](OC(=O)c3ccccc3)[C@]3(O)C[C@H](OC(=O)[C@H](O)[C@@H](NC(=O)c4ccccc4)c4ccccc4)C(C)=C1C3(C)C)[C@]1(OC(C)=O)CO[C@@H]1C[C@@H]2O [Paclitaxel, reference compound]
IC50 (PD002 [14]; Homo sapiens, PD002, 72 h): 1250 nM
CA and CB, concentration in combination (PD002 [11]; Table 3 entry 1): 0.63 µM
CA and CB, concentration in combination (PD002 [11]; Table 3 entry 2): 0.16 µM
CA and CB, concentration in combination (PD002 [11]; Table 3 entry 3): 0.0049 µM
CA and CB, concentration in combination (PD002 [11]; Table 3 entry 4): 0.020 µM
CA and CB, concentration in combination (PD002 [11]; Table 3 entry 6): 0.020 µM

Tunicamycin
IC50 [15]: 2900 nM
IC50 (AglH (M. jannaschii)): 13200 nM
IC50 (DPAGT1 (Human); read-out: IC50 DPAGT1 (Human)): 1500 nM
IC50 (L1210): 1700 nM
IC50 (KB): 2500 nM
IC50 (SiHa [16]): 920 nM
IC50 (HCT-116 [17]): 920 nM
IC50 (DLD-1): 1250 nM
IC50 (Capan-1): 1500 nM
IC50 (PANC-1): 1500 nM
IC50 (AsPC-1): 450 nM
IC50 (PD002 [14]; MTT assay, 72h): 1500 nM
IC50 (HPNE; MTT assay, 72h, normal pancreatic ductal cell): 7500 nM
IC50 (Vero): 780 nM
wound-healing rate (PD002 [6]): 35%
PD002 killed (DPAGT1 gene): 100%
LD50 ([1]; mice, IP, ref [18],[19]): 2.0 mg/kg
LD100 ([1]; mice, IP, ref [18],[19]): 3.5 mg/kg
LD50 ([1]; mouse, ref [10],[18]): 2.0 mg/kg
IC50 (MraY/MurX; read-out: IC50 MraY/MurX, ref [9],[10]): 2900 nM
IC50 (WecA): 150 nM
IC50 (DPAGT1 [2]; read-out: IC50 DPAGT1, ref [9],[10]): 1500 nM
IC50 (WecA (E. coli)): 150 nM

CO[C@H]1[C@@H](OC)[C@H](n2ccc(=O)[nH]c2=O)O[C@@H]1[C@@H](O[C@H]1OC(C(=O)N[C@H]2CCCCNC2=O)=C[C@H](O)[C@@H]1O)C(N)=O [OM-CAP, O-Methyl capuramycin]
IC50 (HPNE; HPNE, 72 h): > 50000 nM
cytotoxicity against healthy cells (e.g., Vero and HPNE cells) ([12]; at 50 μM): does not show cytotoxicity
IC50 (MraY/MurX; read-out: IC50 MraY, previously identified, ref [9]): > 50000 nM

CO[C@H]1[C@@H](O)[C@H](n2ccc(=O)[nH]c2=O)O[C@@H]1[C@@H](O[C@H]1OC(CNCc2ccc(N3CCC(Oc4ccc(OC(F)(F)F)cc4)CC3)cc2)=C[C@H](O)[C@@H]1O)C(N)=O [CPPA, (2R)-2-(((2S,3S,4S)-3,4-Dihydroxy-6-(((4-(4-(4-(trifluoromethoxy)phenoxy)piperidin-1-yl)benzyl)amino)methyl)-3,4-dihydro-2H-pyran-2-yl)oxy)-2-((2S,5R)-5-(2,4-dioxo-3,4-dihydropyrimidin-1(2H)-yl)-4-hydroxy-3-methoxytetrahydrofuran-2-yl)acetamide]
inhibition of all phosphotransferases tested in Table 1 [13]: did not inhibit
